Results published in US20090088412A1, “COMPOSITION FOR TREATING CANCER CELLS AND PREPARATION METHOD THEREOF” (KAOHSIUNG MEDICAL UNIVERSITY, priority 2007, published 2009).
In brackets after ≈: the same amount, converted by molar mass.

Tests used:
MDA-MB-231 = assay: MTT cytotoxicity test, MDA-MB-231; format: cell-based, human; conditions: breast cancer cell line, 72 hours
Method: (§1) The bioactivities of the 25 new withanolide compounds of the present invention are further studied. The bioactivities are measured by examining cytotoxicity tests with 5 human cancer cell lines, including MCF-7 and MDA-MB-231 (which are the breast cancer cell lines), Hep G2 and Hep 3B (which are the liver cancer cell line), and A549 (which is lung cancer cell line). In addition, a normal human lung cell line (MRC-5) is served as the control group. All human cancer cell lines come from the American Type Culture Collection. The respective cell lines are cultured in RPMI-1640 medium with 10% (v/v) fetal calf serum, 100 U/ml penicillin and 100 µg/ml streptomycin, and incubated at 37° C. in 5% CO2 atmosphere.
(§2) In the present invention, the cytotoxicity tests are performed with MTT (3-(4,5-dimethyl-thiazol-2-yl)-2,5-diphenyl tetrazolium bromide) method. The five cancer cell lines and the normal cell line (MRC-5) are firstly incubated in a 96-well culture dish with concentrations of 5,000˜10,000 cells/well. In Day 2, the respective incubated cells are added with the withanolide compounds of the present invention and Doxorubicin and are incubated for additional 72 hours. Afterwards, the incubated cells are examined with the MTT method including steps of dissolving the incubated cells in DMSO, and determining the absorbance of each cell line to each compound by a microplate reader in 550 nm to evaluate the cytotoxicity of each compound to each cell line. […] The IC50 represents the concentration of the compound that is required for 50% inhibition of the cell growth, and Doxorubicin serves as the positive control group.

Hep 3B = assay: MTT cytotoxicity test, Hep 3B; format: cell-based, human; conditions: liver cancer cell line, 72 hours
Method: as §1, §2

A-549 = assay: MTT cytotoxicity test, A-549; format: cell-based, human; conditions: lung cancer cell line, 72 hours
Method: as §1, §2

MCF-7 = assay: MTT cytotoxicity test, MCF-7; format: cell-based, human; conditions: breast cancer cell line, 72 hours
Method: as §1, §2

Hep G2 = assay: MTT cytotoxicity test, Hep G2; format: cell-based, human; conditions: liver cancer cell line, 72 hours
Method: as §1, §2

MRC-5 = assay: MTT cytotoxicity test, normal lung cell line MRC-5; format: cell-based; conditions: normal human lung cell line, 72 hours
Method: as §1, §2

COC1CC(=O)[C@]2(C)[C@H]3CC[C@]4(C)[C@@H]([C@@](C)(O)[C@H]5CC(C)=C(C)C(=O)O5)CC[C@H]4[C@@H]3C[C@H]3O[C@]32[C@H]1O (stereo partly drawn) [Compound 16, iso-Tubocapsanolide G]
IC50 MDA-MB-231 (MDA-MB-231): 8.18 µg/mL (≈ 16.3 µM)
IC50 Hep 3B (Hep 3B): 7.63 µg/mL (≈ 15.2 µM)
IC50 A-549 (A-549): 4.73 µg/mL (≈ 9.41 µM)
IC50 MCF-7 (MCF-7): >20 µg/mL
IC50 Hep G2 (Hep G2): 5.99 µg/mL (≈ 11.9 µM)

COC1CC(=O)[C@]2(C)[C@H]3CC[C@@]4(C)[C@@H](CC[C@]4(O)[C@@](C)(O)[C@H]4CC(C)=C(C)C(=O)O4)[C@@H]3C[C@H]3O[C@]32[C@H]1O (stereo partly drawn) [Compound 17, 20-Hydroxytubocapsanolide G]
IC50 MDA-MB-231 (MDA-MB-231): 4.44 µg/mL (≈ 8.56 µM)
IC50 Hep 3B (Hep 3B): 12.30 µg/mL (≈ 23.7 µM)
IC50 A-549 (A-549): 2.67 µg/mL (≈ 5.15 µM)
IC50 MCF-7 (MCF-7): 17.25 µg/mL (≈ 33.3 µM)
IC50 MRC-5 (MRC-5): 7.20 µg/mL (≈ 13.9 µM)
IC50 Hep G2 (Hep G2): 2.51 µg/mL (≈ 4.84 µM)

COC1CC(=O)[C@]2(C)[C@H]3CC[C@]4(C)C([C@@](C)(O)[C@H]5CC(C)=C(C)C(=O)O5)=CC[C@H]4[C@@H]3C[C@H]3O[C@]32[C@H]1O (stereo partly drawn) [Compound 18, Tubocapsanolide H]
IC50 MDA-MB-231 (MDA-MB-231): 4.82 µg/mL (≈ 9.63 µM)
IC50 Hep 3B (Hep 3B): 2.65 µg/mL (≈ 5.29 µM)
IC50 A-549 (A-549): 7.50 µg/mL (≈ 15 µM)
IC50 MCF-7 (MCF-7): 9.27 µg/mL (≈ 18.5 µM)
IC50 MRC-5 (MRC-5): 15.23 µg/mL (≈ 30.4 µM)
IC50 Hep G2 (Hep G2): 3.67 µg/mL (≈ 7.33 µM)

C[C@@]12CC([C@@]3(O)CC[C@H]4[C@@H]5C[C@H]6O[C@]67[C@@H](O)C=CC(=O)[C@]7(C)[C@H]5CC[C@@]43C)[C@@H](C1)OC(=O)[C@]2(C)O (stereo partly drawn) [Compound 19, Anomanolide A]
IC50 MDA-MB-231 (MDA-MB-231): 1.37 µg/mL (≈ 2.82 µM)
IC50 Hep 3B (Hep 3B): 3.63 µg/mL (≈ 7.46 µM)
IC50 A-549 (A-549): 1.01 µg/mL (≈ 2.08 µM)
IC50 MCF-7 (MCF-7): 2.31 µg/mL (≈ 4.75 µM)
IC50 MRC-5 (MRC-5): 1.91 µg/mL (≈ 3.93 µM)
IC50 Hep G2 (Hep G2): 3.11 µg/mL (≈ 6.39 µM)

C[C@@]12CC([C@@]3(O)CC[C@H]4[C@@H]5C[C@H](O)[C@]6(O)[C@@H](O)C=CC(=O)[C@]6(C)[C@H]5CC[C@@]43C)[C@@H](C1)OC(=O)[C@]2(C)O (stereo partly drawn) [Compound 20, Anomanolide B]
IC50 MDA-MB-231 (MDA-MB-231): 0.70 µg/mL (≈ 1.39 µM)
IC50 Hep 3B (Hep 3B): 3.17 µg/mL (≈ 6.28 µM)
IC50 A-549 (A-549): 1.49 µg/mL (≈ 2.95 µM)
IC50 MCF-7 (MCF-7): 4.84 µg/mL (≈ 9.59 µM)
IC50 MRC-5 (MRC-5): 0.20 µg/mL (≈ 0.396 µM)
IC50 Hep G2 (Hep G2): 0.97 µg/mL (≈ 1.92 µM)

C[C@@]12CC([C@@]3(O)[C@H](O)C[C@H]4[C@@H]5C[C@H]6O[C@]67[C@@H](O)C=CC(=O)[C@]7(C)[C@H]5CC[C@@]43C)[C@@H](C1)OC(=O)[C@]2(C)O (stereo partly drawn) [Compound 21, Anomanolide C]
IC50 MDA-MB-231 (MDA-MB-231): 1.58 µg/mL (≈ 3.14 µM)
IC50 Hep 3B (Hep 3B): 1.85 µg/mL (≈ 3.68 µM)
IC50 A-549 (A-549): 2.80 µg/mL (≈ 5.57 µM)
IC50 MCF-7 (MCF-7): 8.01 µg/mL (≈ 15.9 µM)
IC50 Hep G2 (Hep G2): 4.41 µg/mL (≈ 8.77 µM)

C[C@@]12CC([C@@]3(O)[C@H](O)C[C@H]4[C@@H]5C[C@H](Cl)[C@]6(O)[C@@H](O)C=CC(=O)[C@]6(C)[C@H]5CC[C@@]43C)[C@@H](C1)OC(=O)[C@]2(C)O (stereo partly drawn) [Compound 22, Anomanolide D]
IC50 MDA-MB-231 (MDA-MB-231): >20 µg/mL
IC50 Hep 3B (Hep 3B): 19.03 µg/mL (≈ 35.3 µM)
IC50 A-549 (A-549): >20 µg/mL
IC50 MCF-7 (MCF-7): >20 µg/mL
IC50 Hep G2 (Hep G2): >20 µg/mL

C[C@@]12CC([C@@]3(O)[C@H](O)C[C@H]4[C@@H]5C[C@H](O)[C@]6(O)CC=CC(=O)[C@]6(C)[C@H]5CC[C@@]43C)[C@@H](C1)OC(=O)[C@]2(C)O (stereo partly drawn) [Compound 23, Anomanolide E]
IC50 MDA-MB-231 (MDA-MB-231): >20 µg/mL
IC50 Hep 3B (Hep 3B): >20 µg/mL
IC50 A-549 (A-549): >20 µg/mL
IC50 MCF-7 (MCF-7): >20 µg/mL
IC50 Hep G2 (Hep G2): >20 µg/mL

C[C@@]12CC([C@@]3(O)[C@H](O)C[C@H]4[C@@H]5CC[C@]6(O)[C@@H](O)C=CC(=O)[C@]6(C)[C@H]5CC[C@@]43C)[C@@H](C1)OC(=O)[C@]2(C)O (stereo partly drawn) [Compound 24, Anomanolide F]
IC50 MDA-MB-231 (MDA-MB-231): >20 µg/mL
IC50 Hep 3B (Hep 3B): >20 µg/mL
IC50 A-549 (A-549): >20 µg/mL
IC50 MCF-7 (MCF-7): >20 µg/mL
IC50 Hep G2 (Hep G2): >20 µg/mL

C[C@]1(O)C[C@H]2OC(=O)[C@]1(C)C[C@H]2[C@@]1(O)[C@H](O)C[C@H]2[C@@H]3C[C@H](Cl)[C@]4(O)[C@@H](O)C=CC(=O)[C@]4(C)[C@H]3CC[C@@]21C [Compound 25, Tubonolide A]
IC50 MDA-MB-231 (MDA-MB-231): >20 µg/mL
IC50 Hep 3B (Hep 3B): 6.54 µg/mL (≈ 12.1 µM)
IC50 A-549 (A-549): 5.91 µg/mL (≈ 11 µM)
IC50 MCF-7 (MCF-7): 12.03 µg/mL (≈ 22.3 µM)
IC50 Hep G2 (Hep G2): 5.09 µg/mL (≈ 9.44 µM)
